Laboratory results from article PMC10584170, “Machine learning-based phenotypic imaging to characterise the targetable biology of Plasmodium falciparum male gametocytes for the development of transmission-blocking antimalarials” (PLOS Pathogens, 2023).
Read-outs that look alike come from different tables or passages of the source.

Assays:
[1] = tested on: P. falciparum male gametocytes; experiment: P. falciparum Dual Gamete Formation Assay (PfDGFA), male readout (exflagellation); type: cell-based, Plasmodium falciparum NF54; conditions: for Selectivity Ratio M: HepG2 Tox50 versus male IC50; for inhibition at 2 µM / Average inhibition male (%) / % inhibition male (individual replicates) R1 / % inhibition male (individual replicates) R3 / % inhibition male (individual replicates) R4: 24h preincubation with gametocytes; for IC50: PfDGFA, 24 h incubation with gametocytes before induction, exflagellation readout, read-out: Male IC50; for HitlevelM: number of replicates with >50% inhibition in the male readout
Method in brief: (§1)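 NF54 mature gametocytes (d14), cpd 24 h 37°C hypoxic gas; trigger: xanthurenic acid ookinete medium + Cy3 anti-Pfs25, 4°C 4 min → 28°C 4 min. Male: exflagellation centres, brightfield x6. Female: Pfs25+ gametes, fluorescence, +24 h 28°C dark.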

[2] = tested on: P. falciparum female gametocytes; experiment: P. falciparum Dual Gamete Formation Assay (PfDGFA), female readout (Pfs25-positive female gametes); type: cell-based, Plasmodium falciparum NF54; conditions: for Selectivity ratio F: HepG2 Tox50 versus female IC50; for inhibition at 2 µM / Average inhibition female (%) / % inhibition female (individual replicates) R1 / % inhibition female (individual replicates) R3 / % inhibition female (individual replicates) R4: 24h preincubation with gametocytes; for IC50: PfDGFA, 24 h incubation with gametocytes before induction, female gamete readout, read-out: Female IC50; for HitlevelF: number of replicates with >50% inhibition in the female readout
Method in brief: as §1

HepG2 cells = experiment: HepG2 cytotoxicity counter-screen; conditions: cytotoxic activity against HepG2 cells
[3] = Plasmodium falciparum, 2µM, average of replicates, read-out: Average inhibition male (%)
[4] = Plasmodium falciparum, 2µM, replicate R1, read-out: % inhibition male (individual replicates) R1
[5] = Plasmodium falciparum, 2µM, replicate R2, read-out: % inhibition male (individual replicates) R2
[6] = Plasmodium falciparum, 2µM, replicate R3, read-out: % inhibition male (individual replicates) R3
[7] = Plasmodium falciparum, 2µM, replicate R4, read-out: % inhibition male (individual replicates) R4
[8] = Plasmodium falciparum, 2µM, average of replicates, read-out: Average inhibition female (%)
[9] = Plasmodium falciparum, 2µM, replicate R1, read-out: % inhibition female (individual replicates) R1
[10] = Plasmodium falciparum, 2µM, replicate R2, read-out: % inhibition female (individual replicates) R2
[11] = Plasmodium falciparum, 2µM, replicate R3, read-out: % inhibition female (individual replicates) R3
[12] = Plasmodium falciparum, 2µM, replicate R4, read-out: % inhibition female (individual replicates) R4
[13] = Plasmodium falciparum, PfDGFA at 2µM, average of replicates, read-out: Average inhibition male (%)
[14] = Plasmodium falciparum, PfDGFA at 2µM, replicate R1, read-out: % inhibition male (individual replicates) R1
[15] = Plasmodium falciparum, PfDGFA at 2µM, replicate R2, read-out: % inhibition male (individual replicates) R2
[16] = Plasmodium falciparum, PfDGFA at 2µM, replicate R3, read-out: % inhibition male (individual replicates) R3
[17] = Plasmodium falciparum, PfDGFA at 2µM, replicate R4, read-out: % inhibition male (individual replicates) R4
[18] = Plasmodium falciparum, PfDGFA at 2µM, average of replicates, read-out: Average inhibition female (%)
[19] = Plasmodium falciparum, PfDGFA at 2µM, replicate R1, read-out: % inhibition female (individual replicates) R1
[20] = Plasmodium falciparum, PfDGFA at 2µM, replicate R2, read-out: % inhibition female (individual replicates) R2
[21] = Plasmodium falciparum, PfDGFA at 2µM, replicate R3, read-out: % inhibition female (individual replicates) R3
[22] = Plasmodium falciparum, PfDGFA at 2µM, replicate R4, read-out: % inhibition female (individual replicates) R4
[23] = PfDGFA at 2µM, average of replicates

IC50 ([1]; Plasmodium falciparum) | IC50 ([2]; Plasmodium falciparum) | IC50 [1] | Structure (SMILES) | Selectivity Ratio M [1] | Selectivity ratio F [2] | Tox50 (HepG2 cells) | inhibition at 2 µM [1, 13] | inhibition at 2 µM [1, 14] | inhibition at 2 µM [1, 15] | inhibition at 2 µM [1, 16] | inhibition at 2 µM [1, 17] | HitlevelM ([1]; 2µM) | inhibition at 2 µM [2, 18] | inhibition at 2 µM [2, 19] | inhibition at 2 µM [2, 20] | inhibition at 2 µM [2, 21] | inhibition at 2 µM [2, 22] | HitlevelF ([2]; 2µM) | also measured
420 nM | > 10000 nM | – | Cc1ccc(C(C(=O)Nc2ccc(N3CCNCC3)c(Cl)c2)c2ccccc2)cc1 (stereo not drawn) [TCMDC-134292] | 27.18 | 1.13 | 11.32 µM | – | – | – | – | – | – | – | – | – | – | – | – | inhibition at 2 µM [1, 3]: 93.6%; inhibition at 2 µM [1, 4]: 96.8%; inhibition at 2 µM [1, 5]: 85.1%; inhibition at 2 µM [1, 6]: 98.4%; inhibition at 2 µM [1, 7]: 94.1%; inhibition at 2 µM [2, 8]: 61.9%; inhibition at 2 µM [2, 9]: 54.2%; inhibition at 2 µM [2, 10]: 48.2%; inhibition at 2 µM [2, 11]: 79.2%; inhibition at 2 µM [2, 12]: 66%
– | – | 1800 nM | COc1c(C2CCN(CCCCNC(=O)c3ccc(-c4ccc(Cl)cc4)c(OCCN(C)C)c3)CC2)ccc2c1CCCC2 [TCMDC-134371] | 3.17 | 0.69 | 5.71 µM | – | – | – | – | – | – | – | – | – | – | – | – | Average inhibition male (%) ([1]; 2µM, average of replicates): 98.8%; % inhibition male (individual replicates) R1 ([1]; 2µM, replicate R1): 97.3%; % inhibition male (individual replicates) R3 ([1]; 2µM, replicate R3): 99.5%; % inhibition male (individual replicates) R4 ([1]; 2µM, replicate R4): 100.2%; Average inhibition female (%) ([2]; 2µM, average of replicates): 90.2%; % inhibition female (individual replicates) R1 ([2]; 2µM, replicate R1): 90.8%; % inhibition female (individual replicates) R3 ([2]; 2µM, replicate R3): 96.4%; % inhibition female (individual replicates) R4 ([2]; 2µM, replicate R4): 89.7%; IC50 [2]: 8290 nM
1380 nM | > 10000 nM | – | COc1cc2c(cc1S(=O)(=O)c1ccc(COc3ccc(C(F)(F)F)cc3)cc1)CNCC2.Cl [TCMDC-134479] | 11.99 | 1.66 | 16.6 µM | 89.2% | 89.3% | 88% | 76% | 104% | 4 | 10% | 16.9% | 9.1% | -0.43% | 14.6% | 0 | –
– | – | 320 nM | CC(C#N)Cc1ccc(-c2cnc(N)c3cc(-c4ccnc(N)n4)ccc23)cc1 (stereo not drawn) [TCMDC-134547] | 7.45 | 0.24 | 2.39 µM | – | – | – | – | – | 4 | – | – | – | – | – | 0 | Average inhibition male (%) [1, 23]: 85.1%; % inhibition male (individual replicates) R1 ([1]; PfDGFA at 2µM, replicate R1): 91.7%; % inhibition male (individual replicates) R3 ([1]; PfDGFA at 2µM, replicate R3): 80.2%; % inhibition male (individual replicates) R4 ([1]; PfDGFA at 2µM, replicate R4): 74.9%; Average inhibition female (%) [2, 23]: 0.03%; % inhibition female (individual replicates) R1 ([2]; PfDGFA at 2µM, replicate R1): 9.4%; % inhibition female (individual replicates) R3 ([2]; PfDGFA at 2µM, replicate R3): -8.0%; % inhibition female (individual replicates) R4 ([2]; PfDGFA at 2µM, replicate R4): 0.7%
– | – | 1560 nM | COc1cccc(OC)c1CN1CCC(N(C)CCCCCCCCCN2CCC(OC(=O)Nc3ccccc3-c3ccccc3)CC2)CC1 [TCMDC-134690] | 1.95 | 0.8 | 3.03 µM | – | – | – | – | – | – | – | – | – | – | – | – | Average inhibition male (%) ([1]; 2µM, average of replicates): 94.5%; % inhibition male (individual replicates) R1 ([1]; 2µM, replicate R1): 97.5%; % inhibition male (individual replicates) R3 ([1]; 2µM, replicate R3): 83.2%; % inhibition male (individual replicates) R4 ([1]; 2µM, replicate R4): 100.9%; Average inhibition female (%) ([2]; 2µM, average of replicates): 49.9%; % inhibition female (individual replicates) R1 ([2]; 2µM, replicate R1): 26.2%; % inhibition female (individual replicates) R3 ([2]; 2µM, replicate R3): 20.7%; % inhibition female (individual replicates) R4 ([2]; 2µM, replicate R4): 73.0%; IC50 [2]: 3800 nM
620 nM | > 10000 nM | – | COCCN(C)CCCOc1cc2c(cc1OC)ncn2-c1cc(OCc2ccccc2C(F)(F)F)c(C(N)=O)s1.Cl [TCMDC-135214] | 22.02 | 1.36 | 13.65 µM | 64.6% | 90.7% | 80.9% | 65.9% | 20.9% | 3 | 20.2% | 22.9% | 10% | 11% | 36.6% | 0 | –
430 nM | > 10000 nM | – | COc1ccc2nc(-c3cc(-c4ccc(NC(=O)C(C)C)cc4)cnc3N)[nH]c2c1 [TCMDC-135322] | 19.53 | 0.84 | 8.38 µM | 72% | 76.6% | 80.3% | 78.9% | 52.3% | 4 | -9% | -9.8% | -5.2% | -4.1% | -17% | 0 | –

Structure (SMILES) | IC50 ([1]; Plasmodium falciparum) | IC50 ([2]; Plasmodium falciparum) | IC50 [1] | Selectivity Ratio M [1] | Selectivity ratio F [2] | Tox50 (HepG2 cells) | inhibition at 2 µM [1, 13] | inhibition at 2 µM [1, 14] | inhibition at 2 µM [1, 15] | inhibition at 2 µM [1, 16] | inhibition at 2 µM [1, 17] | HitlevelM ([1]; 2µM) | inhibition at 2 µM [2, 18] | inhibition at 2 µM [2, 19] | inhibition at 2 µM [2, 20] | inhibition at 2 µM [2, 21] | inhibition at 2 µM [2, 22] | HitlevelF ([2]; 2µM) | also measured
Cc1cccc(Nc2nc(N[C@@H]3CCCNC3)nc3cc[nH]c(=O)c23)c1.O=C(O)C(F)(F)F [TCMDC-134835] | 210 nM | 7690 nM | – | 21.63 | 0.58 | 4.45 µM | – | – | – | – | – | – | – | – | – | – | – | – | inhibition at 2 µM [1, 3]: 97.3%; inhibition at 2 µM [1, 4]: 96.8%; inhibition at 2 µM [1, 5]: 100%; inhibition at 2 µM [1, 7]: 94.9%; inhibition at 2 µM [2, 8]: -0.142%; inhibition at 2 µM [2, 9]: 6.3%; inhibition at 2 µM [2, 10]: 4.6%; inhibition at 2 µM [2, 11]: -8.3%; inhibition at 2 µM [2, 12]: -3.2%
Cc1cccc(Nc2nc(NCCCCN)nc3cc[nH]c(=O)c23)c1.O=C(O)C(F)(F)F [TCMDC-134946] | 380 nM | > 10000 nM | – | 75.16 | 2.87 | 28.66 µM | 89.5% | 94.1% | 93.5% | 87.3% | 82.9% | 4 | 9% | 6.6% | 23% | 13.1% | -6.7% | 0 | –
O=C(O)C(F)(F)F.O=c1[nH]ccc2nc(N[C@@H]3CCCNC3)nc(Nc3ccc(S(=O)(=O)N4CCOCC4)cc3)c12 [TCMDC-135038] | 60 nM | 8170 nM | – | 342.32 | 2.68 | 21.89 µM | – | – | – | – | – | – | – | – | – | – | – | – | inhibition at 2 µM [1, 3]: 97.4%; inhibition at 2 µM [1, 4]: 93.1%; inhibition at 2 µM [1, 5]: 99.1%; inhibition at 2 µM [1, 6]: 99.2%; inhibition at 2 µM [1, 7]: 98.2%; inhibition at 2 µM [2, 8]: 14.1%; inhibition at 2 µM [2, 9]: 2.2%; inhibition at 2 µM [2, 10]: 10.6%; inhibition at 2 µM [2, 11]: 4.3%; inhibition at 2 µM [2, 12]: 39.1%
O=C(O)C(F)(F)F.O=c1[nH]ccc2nc(N[C@@H]3CCNC3)nc(Nc3cc(Cl)cc(Cl)c3)c12 [TCMDC-135052] | – | – | 1530 nM | 4.82 | 1.49 | 7.37 µM | – | – | – | – | – | – | – | – | – | – | – | – | Average inhibition male (%) ([1]; 2µM, average of replicates): 90.0%; % inhibition male (individual replicates) R1 ([1]; 2µM, replicate R1): 96.4%; % inhibition male (individual replicates) R3 ([1]; 2µM, replicate R3): 98.4%; % inhibition male (individual replicates) R4 ([1]; 2µM, replicate R4): 88.5%; Average inhibition female (%) ([2]; 2µM, average of replicates): 61.3%; % inhibition female (individual replicates) R1 ([2]; 2µM, replicate R1): 75.7%; % inhibition female (individual replicates) R3 ([2]; 2µM, replicate R3): 60.7%; % inhibition female (individual replicates) R4 ([2]; 2µM, replicate R4): 86.1%; IC50 [2]: 4940 nM
